Each structure is given as a SMILES string. Counter-ions that a name gives are not always drawn.

By IC50 is commonly meant the concentration that gives 50% inhibition.

Assay [1] concerns Vascular smooth muscle cells (rSMC). Briefly: Rat smooth muscle cell proliferation assay (thrombin-stimulated, MTT). In kind it is cell-based. Conditions: 48 h, thrombin 0.1 unit/ml, 2 days, MTT OD 590 nm, read-out: Rat SMC IC50. The method, then: Vascular smooth muscle cells (rSMC) were isolated from male SD rat aorta by the explant method. DMEM medium (Sigma) containing 10% fetal bovine serum (GibcoBRL), streptomycin and penicillin was used as the proliferation medium, and subculture was carried out at 37° C. in the presence of 5% CO2. Culture was initiated after adding 100 μl of rSMC suspension in proliferation medium at a concentration of 1×10^4 cells/ml, to a 96-well plate. After 3 days, cells were rinsed twice with 100 μl of DMEM medium, the medium was exchanged with 100 μl of DMEM medium containing 0.1% albumin (starvation medium), and serum starvation was initiated. […]
Upon adding 20 μl of MTT (3-[4,5-dimethylthiazol-2-yl]-2,5-diphenyltetrazolium bromide) dissolved in DPBS to 7.5 mg/ml, incubation was continued for 4 hours. […] As an index of cell proliferation, the OD 590 nm was measured using a plate reader (EL340, BIO-TEK Instruments Inc.), and the control OD value (OD value in the absence of the test compound) minus the OD value in the presence of the test compound was divided by the control OD value minus the blank OD value (OD value without thrombin stimulation) to determine the inhibition ratio, from which the value was calculated.

In assay [2] the test system is platelet rich plasma (PRP), thrombin-induced platelet aggregation. Nature of the assay: Inhibitory effects on platelet aggregation using platelet rich plasma (thrombin-induced). The format is cell-based. Conditions: Homo sapiens, 0.1 h, thrombin 0.5-1.5 units/ml, area under aggregation curve over 6 minutes, read-out: Thr IC50. The method, then: Blood was sampled from a healthy adult who had taken no drugs for one week, and 3.8% citric acid (a ratio of 1:9 with respect to the blood) was added as an anticoagulant. The mixture was then centrifuged at 100 g for 10 minutes at room temperature to yield platelet rich plasma (PRP). The PRP-removed blood was further centrifuged at 1000 g for 10 minutes to yield platelet poor plasma (PPP). The number of platelet was counted using a multi-parameter automatic hemocyte counter (K4500, Sysmex), and the PRP was diluted to approximately 300,000/μl with the PPP. The platelet aggregation activity was determined in the following manner using an Aggregometer (MC Medical). GPRP-NH2 (final concentration 1 mM, 25 μl) was added as a fibrin polymerization inhibitor to the PRP (175 μl), after which Ca-free Tyrode solution (control) or the test compound suspension (25 μl) at different concentrations was added, incubation was performed at 37° C. for 3 minutes and then 25 μl of thrombin at the minimum concentration required to produce maximum aggregation (final concentration: optimum concentration among 0.5-1.5 units/ml) was added, for initiation of platelet aggregation. […] After addition of thrombin, the aggregation reaction was examined for 6 minutes and the areas under the aggregation curves were compared to determine the inhibition ratio, from which the IC50 value was calculated.

A further assay has as its target T1, PAR1 thrombin receptor (Homo sapiens, UniProt P25116).
T1 construct: centrifuged at 40,000 g for 60 minutes to yield platelet membrane; from tissue; host or cells: platelet membrane from donor blood
T1 sequence (P25116 22-425): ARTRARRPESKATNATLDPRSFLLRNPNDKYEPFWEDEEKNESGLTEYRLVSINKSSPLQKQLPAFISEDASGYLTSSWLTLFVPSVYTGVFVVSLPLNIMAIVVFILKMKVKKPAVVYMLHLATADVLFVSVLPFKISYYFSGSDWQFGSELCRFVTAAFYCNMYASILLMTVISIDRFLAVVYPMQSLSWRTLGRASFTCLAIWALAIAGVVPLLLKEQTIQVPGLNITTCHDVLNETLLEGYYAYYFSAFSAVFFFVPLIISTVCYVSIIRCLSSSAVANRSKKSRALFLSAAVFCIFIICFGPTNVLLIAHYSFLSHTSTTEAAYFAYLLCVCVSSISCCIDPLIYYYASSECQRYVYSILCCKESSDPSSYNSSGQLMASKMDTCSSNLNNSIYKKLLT
Briefly: Receptor binding assay ([3H] high affinity TRAP, platelet membrane). Conditions: displacement of 25 nM [3H] high affinity TRAP from platelet membrane, 37° C., 1 hour; read-out: RBA IC50. The method, then: Blood was sampled from a healthy adult who had taken no drugs for one week, and 3.8% citric acid (a ratio of 1:9 with respect to the blood) was added as an anticoagulant. The mixture was then centrifuged at 100 g for 10 minutes at room temperature to yield platelet rich plasma (PRP). The platelet precipitate obtained, by centrifuging the PRP was homogenized with a Dounce homogenizer, and then centrifuged at 40,000 g for 60 minutes to yield platelet membrane. The platelet membrane was suspended in a solution prepared by adding DMSO (dimethyl sulfoxide) at 1% concentration to Buffer 1: a 50 mM Tris-HCl buffer containing 10 mM MgCl2 and 1 mM EGTA (ethylene glycol tetraacetic acid), and the suspension was stored at −80° C. Bovine albumin and DMSO were added to Buffer 1 at 0.1% and 20%, respectively, to make a preparation solution for the test compound. […] Next, 30 μl of liquid scintillator was added for measurement of the radioactivity of the plate using a Top Counter (Packard), the value of the radioactivity in the presence of the test compound minus non-specific binding portion was divided by the specific binding value (the value of the binding in the absence of the compound minus the non-specific binding portion) to determine the binding ratio, from which the IC50 value was calculated. […]

With `CCCC1CN(CC(=O)c2cc(N(C)S(C)(=O)=O)c(O)c(C(C)(C)C)c2)C(=N)[C@@H]1c1ccccc1` (stereo in doubt) [Example 3, N-{3-tert-Butyl-2-hydroxy-5-[2-((3S,4S)-2-imino-3-phenyl-4-propyl-pyrrolidin-1-yl)-acetyl]-phenyl}-N-methyl-methanesulfonamide hydrobromide], the IC50 in assay [1] is 2500 nM; in assay [2], 2300 nM; at PAR1 thrombin receptor, 660 nM.
